Experimental findings from ChEMBL document CHEMBL4831514, “Novel betulin dicarboxylic acid ester derivatives as potent antiviral agents: Design, synthesis, biological evaluation, structure-activity relationship and in-silico study” (Eur J Med Chem, 2021) are described below.

Molecules are shown by their SMILES. Active and inactive are the calls of the source. The rule behind the calls is not given here.

This assay concerns Vesicular stomatitis virus. Briefly: Antiviral activity against Vesicular stomatitis virus Indiana infected in A549 cells assessed as inhibition of viral adsorption at early stage of replication treated for 1 hr during viral infection followed by replacement with fresh medium and measured after 48 hrs by MTT assay. The assay is classed as functional, organism-based. On the technique in general: Tetrazolium assays rely on reduction of a dye to a coloured formazan, in cell work by metabolically active cells.
For the compound `C=C(C)[C@@H]1CC[C@]2(COC(=O)CCCCCCCCCC(=O)N3CCCCC3)CC[C@]3(C)[C@H](CC[C@@H]4[C@@]5(C)CC[C@H](O)C(C)(C)[C@@H]5CC[C@]43C)[C@@H]12`, the outcome was inactive. In the case of `C#CC1(NC(=O)CCCCCCCCCC(=O)OC[C@]23CC[C@@H](C(=C)C)[C@@H]2[C@H]2CCC4[C@@]5(C)CC[C@H](O)C(C)(C)[C@@H]5CC[C@@]4(C)[C@]2(C)CC3)CCCCC1` (single isomer, unassigned) it was “inactive”; in that of `C=C(C)[C@@H]1CC[C@]2(CO)CC[C@]3(C)[C@H](CC[C@@H]4[C@@]5(C)CC[C@H](O)C(C)(C)[C@@H]5CC[C@]43C)[C@@H]12` [BETULIN], “inactive”; in that of `C#CC1(NC(=O)CCCC(=O)OC[C@]23CCC(C(=C)C)[C@@H]2[C@H]2CC[C@@H]4[C@@]5(C)CC[C@H](O)C(C)(C)[C@@H]5CC[C@@]4(C)[C@]2(C)CC3)CCCCC1` (single isomer, unassigned), “inactive”. The result for `C=C(C)[C@@H]1CC[C@]2(COC(=O)/C=C(\C)C(=O)N3CCSCC3)CC[C@]3(C)[C@H](CC[C@@H]4[C@@]5(C)CC[C@H](O)C(C)(C)[C@@H]5CC[C@]43C)[C@@H]12` reads “inactive”. In the case of `C=C(C)[C@@H]1CC[C@]2(COC(=O)c3cccc(C(=O)O)c3)CC[C@]3(C)[C@H](CC[C@@H]4[C@@]5(C)CC[C@H](O)C(C)(C)[C@@H]5CC[C@]43C)[C@@H]12` it was “inactive”; in that of `C=C(C)[C@@H]1CC[C@]2(COC(=O)CCCC(=O)N3CCOCC3)CC[C@]3(C)[C@H](CC[C@@H]4[C@@]5(C)CC[C@H](O)C(C)(C)[C@@H]5CC[C@]43C)[C@@H]12`, “inactive”. As to `C=C(C)[C@@H]1CCC2(COC(=O)CCCCCCCCCC(=O)N3CCSCC3)CC[C@]3(C)[C@H](CC[C@@H]4[C@@]5(C)CC[C@H](O)C(C)(C)[C@@H]5CC[C@]43C)[C@@H]12` (single isomer, unassigned), the result was inactive. In the case of `C=C(C)[C@@H]1CC[C@]2(COC(=O)/C=C(\C)C(=O)N3CCCCC3)CC[C@]3(C)[C@H](CC[C@@H]4[C@@]5(C)CC[C@H](O)C(C)(C)[C@@H]5CC[C@]43C)[C@@H]12` it was “inactive”; in that of `C#CC1(NC(=O)c2ccccc2C(=O)OC[C@]23CC[C@@H](C(=C)C)[C@@H]2[C@H]2CC[C@@H]4[C@@]5(C)CC[C@H](O)C(C)(C)[C@@H]5CC[C@@]4(C)[C@]2(C)CC3)CCCCC1`, “inactive”; in that of `C=C(C)[C@@H]1CC[C@]2(COC(=O)CCC(=O)N3CCSCC3)CC[C@]3(C)[C@H](CC[C@@H]4[C@@]5(C)CC[C@H](O)C(C)(C)[C@@H]5CC[C@]43C)[C@@H]12`, “inactive”. In the case of `C=C(C)[C@@H]1CC[C@]2(COC(=O)CSCC(=O)O)CC[C@]3(C)[C@H](CC[C@@H]4[C@@]5(C)CC[C@H](O)C(C)(C)[C@@H]5CC[C@]43C)[C@@H]12` it was “inactive”; in that of `C#CCNC(=O)CCCC(=O)OC[C@]12CC[C@@H](C(=C)C)[C@@H]1[C@H]1CC[C@@H]3[C@@]4(C)CC[C@H](O)C(C)(C)[C@@H]4CC[C@@]3(C)[C@]1(C)CC2`, “inactive”; in that of `C#CCNC(=O)CCC(=O)OC[C@]12CC[C@@H](C(=C)C)C1[C@H]1CC[C@@H]3[C@@]4(C)CC[C@H](O)C(C)(C)[C@@H]4CC[C@@]3(C)[C@]1(C)CC2` (single isomer, unassigned), “inactive”. The result for `C#CCNC(=O)/C(C)=C/C(=O)OC[C@]12CC[C@@H](C(=C)C)[C@@H]1[C@H]1CC[C@@H]3[C@@]4(C)CC[C@H](O)C(C)(C)[C@@H]4CC[C@@]3(C)[C@]1(C)CC2` reads “inactive”; that for `C=C(C)[C@@H]1CC[C@]2(COC(=O)c3ccccc3C(=O)N3CCOCC3)CC[C@]3(C)[C@H](CC[C@@H]4[C@@]5(C)CC[C@H](O)C(C)(C)[C@@H]5CC[C@]43C)[C@@H]12`, “inactive”; that for `C#CC1(NC(=O)c2cccc(C(=O)OC[C@]34CC[C@@H](C(=C)C)[C@@H]3[C@H]3CC[C@@H]5[C@@]6(C)CC[C@H](O)C(C)(C)[C@@H]6CC[C@@]5(C)[C@]3(C)CC4)c2)CCCCC1`, “inactive”.

For the compound `C=C(C)[C@@H]1CC[C@]2(COC(=O)c3cccc(C(=O)N4CCSCC4)c3)CC[C@]3(C)[C@H](CC[C@@H]4[C@@]5(C)CC[C@H](O)C(C)(C)[C@@H]5CC[C@]43C)C12` (single isomer, unassigned), the result was inactive.

`NC(=O)c1ncn([C@@H]2O[C@H](CO)[C@@H](O)[C@H]2O)n1` [RIBAVIRIN]: the result was inactive. The result for `C=C(C)[C@@H]1CC[C@]2(COC(=O)c3cccc(C(=O)N4CCCCC4)c3)CC[C@]3(C)[C@H](CC[C@@H]4[C@@]5(C)CC[C@H](O)C(C)(C)[C@@H]5CC[C@]43C)[C@@H]12` reads “inactive”; that for `C#CCNC(=O)CCCCCCCCCC(=O)OC[C@]12CC[C@@H](C(=C)C)[C@@H]1[C@H]1CC[C@@H]3[C@@]4(C)CC[C@H](O)C(C)(C)[C@@H]4CC[C@@]3(C)[C@]1(C)CC2`, “inactive”. The result for `C=C(C)[C@@H]1CC[C@]2(COC(=O)c3ccccc3C(=O)N3CCCCC3)CC[C@]3(C)[C@H](CC[C@H]4C3(C)CC[C@H]3C(C)(C)[C@@H](O)CC[C@@]34C)[C@@H]12` (single isomer, unassigned) reads “inactive”; that for `C=C(C)[C@@H]1CC[C@]2(COC(=O)c3ccccc3C(=O)O)CC[C@]3(C)[C@H](CC[C@@H]4[C@@]5(C)CC[C@H](O)C(C)(C)[C@@H]5CC[C@]43C)[C@@H]12`, “inactive”; that for `C=C(C)[C@@H]1CC[C@]2(COC(=O)CCCC(=O)O)CC[C@]3(C)[C@H](CC[C@@H]4[C@@]5(C)CC[C@H](O)C(C)(C)[C@@H]5CC[C@]43C)[C@@H]12`, “inactive”. In the case of `C#CCNC(=O)c1cccc(C(=O)OC[C@]23CC[C@@H](C(=C)C)[C@@H]2[C@H]2CC[C@@H]4C5(C)CC[C@H](O)C(C)(C)[C@@H]5CC[C@@]4(C)[C@]2(C)CC3)c1` (single isomer, unassigned) it was “inactive”; in that of `C#CC1(NC(=O)/C(C)=C/C(=O)OC[C@]23CC[C@@H](C(=C)C)[C@@H]2[C@H]2CC[C@@H]4[C@@]5(C)CC[C@H](O)C(C)(C)[C@@H]5CC[C@@]4(C)[C@]2(C)CC3)CCCCC1`, “inactive”. In the case of `C=C(C)[C@@H]1CC[C@]2(COC(=O)CCCCCCCCCC(=O)O)CC[C@]3(C)[C@H](CC[C@@H]4[C@@]5(C)CC[C@H](O)C(C)(C)[C@@H]5CC[C@]43C)[C@@H]12`, the result was inactive. The result for `C=C(C)[C@@H]1CC[C@]2(COC(=O)c3cccc(C(=O)N4CCOCC4)c3)CC[C@]3(C)[C@H](CC[C@@H]4[C@@]5(C)CC[C@H](O)C(C)(C)[C@@H]5CC[C@]43C)[C@@H]12` reads “inactive”; that for `C#CC1(NC(=O)CCC(=O)OC[C@]23CC[C@@H](C(=C)C)[C@@H]2[C@H]2CC[C@@H]4[C@@]5(C)CC[C@H](O)C(C)(C)[C@@H]5CC[C@@]4(C)[C@]2(C)CC3)CCCCC1`, “inactive”.

Take `C#CCNC(=O)c1ccccc1C(=O)OC[C@]12CC[C@@H](C(=C)C)[C@@H]1[C@H]1CC[C@@H]3[C@@]4(C)CC[C@H](O)C(C)(C)[C@@H]4CC[C@@]3(C)[C@]1(C)CC2`: the outcome was inactive. In the case of `C=C(C)[C@@H]1CC[C@]2(COC(=O)/C=C(\C)C(=O)O)CC[C@]3(C)[C@H](CC[C@@H]4[C@@]5(C)CC[C@H](O)C(C)(C)[C@@H]5CC[C@]43C)[C@@H]12` it was “inactive”; in that of `C=C(C)[C@@H]1CC[C@]2(COC(=O)CCC(=O)N3CCOCC3)CC[C@]3(C)[C@H](CC[C@@H]4[C@@]5(C)CC[C@H](O)C(C)(C)[C@@H]5CC[C@]43C)[C@@H]12`, “inactive”; in that of `Nc1nc2c(ncn2COCCO)c(=O)[nH]1` [ACYCLOVIR], “inactive”.

With `C=C(C)[C@@H]1CC[C@]2(COC(=O)CCCC(=O)N3CCCCC3)CC[C@]3(C)[C@H](CC[C@@H]4[C@@]5(C)CC[C@H](O)C(C)(C)[C@@H]5CC[C@]43C)[C@@H]12`, the result was inactive.

As to `C=C(C)[C@@H]1CC[C@]2(COC(=O)CCCCCCCCCC(=O)N3CCOCC3)CC[C@]3(C)[C@H](CC[C@@H]4[C@@]5(C)CC[C@H](O)C(C)(C)[C@@H]5CC[C@]43C)[C@@H]12`, the result was inactive. In the case of `C=C(C)[C@@H]1CC[C@]2(COC(=O)CCCC(=O)N3CCSCC3)CC[C@]3(C)[C@H](CC[C@@H]4[C@@]5(C)CC[C@H](O)C(C)(C)[C@@H]5CC[C@]43C)[C@@H]12` it was “inactive”; in that of `Nc1ccn(C[C@@H](CO)OCP(=O)(O)O)c(=O)n1.O.O` [CIDOFOVIR], “inactive”. In the case of `C=C(C)[C@@H]1CC[C@]2(COC(=O)c3ccccc3C(=O)N3CCSCC3)CC[C@]3(C)[C@H](CC[C@@H]4[C@@]5(C)CC[C@H](O)C(C)(C)[C@@H]5CC[C@]43C)[C@@H]12` it was “inactive”; in that of `C=C(C)[C@@H]1CC[C@]2(COC(=O)CCC(=O)N3CCCCC3)CC[C@]3(C)[C@H](CC[C@@H]4[C@@]5(C)CCC(O)C(C)(C)[C@@H]5CC[C@]43C)[C@@H]12` (single isomer, unassigned), “inactive”. In the case of `C=C(C)[C@@H]1CC[C@]2(COC(=O)CCC(=O)O)CC[C@]3(C)[C@H](CC[C@@H]4[C@@]5(C)CCC(O)C(C)(C)[C@@H]5CC[C@]43C)[C@@H]12` (single isomer, unassigned) it was “inactive”; in that of `C=C(C)[C@@H]1CC[C@]2(COC(=O)/C=C/C(=O)O)CC[C@]3(C)[C@H](CC[C@@H]4[C@@]5(C)CC[C@H](O)C(C)(C)[C@@H]5CC[C@]43C)[C@@H]12`, “inactive”.
